Active and inactive are the calls of the source. No cut-off for these calls is given here.
Key:
[1] = molecular target: T1, Receptor-interacting serine/threonine-protein kinase 2 (Homo sapiens, UniProt O43353); assay: Binding affinity to recombinant RIPK2 (unknown origin) measured by surface plasmon resonance analysis
[2] = molecular target: T1, Receptor-interacting serine/threonine-protein kinase 2; assay: Binding affinity to recombinant RIPK2 (unknown origin) measured by microscale thermophoresis (MST) assay
BV-2 [3] = assay: Cytotoxicity against mouse BV-2 cells at 12.5 to 50 uM measured after 24 hrs by MTT assay; format: toxicity, cell-based; conditions: bv-2, 24 h, dose 12.5-50 µM
BV-2 [4] = assay: Anti-neuroinflammatory activity in mouse BV-2 cells assessed as inhibition of LPS-induced NO production at 5 to 20 uM measured after 24 hrs; format: functional, cell-based; conditions: dose 5-20 µM, DDE = dose-dependent effect
[5] = molecular target: Receptor-interacting serine/threonine-protein kinase 2 (Mus musculus) (UniProt P58801); assay: Binding affinity to RIPK2 in mouse BV-2 cells measured by Cellular thermal shift assay (CETSA); format: cell-based
Receptor-interacting serine/threonine-protein kinase 2 (Mus musculus), sequence (P58801 whole entry): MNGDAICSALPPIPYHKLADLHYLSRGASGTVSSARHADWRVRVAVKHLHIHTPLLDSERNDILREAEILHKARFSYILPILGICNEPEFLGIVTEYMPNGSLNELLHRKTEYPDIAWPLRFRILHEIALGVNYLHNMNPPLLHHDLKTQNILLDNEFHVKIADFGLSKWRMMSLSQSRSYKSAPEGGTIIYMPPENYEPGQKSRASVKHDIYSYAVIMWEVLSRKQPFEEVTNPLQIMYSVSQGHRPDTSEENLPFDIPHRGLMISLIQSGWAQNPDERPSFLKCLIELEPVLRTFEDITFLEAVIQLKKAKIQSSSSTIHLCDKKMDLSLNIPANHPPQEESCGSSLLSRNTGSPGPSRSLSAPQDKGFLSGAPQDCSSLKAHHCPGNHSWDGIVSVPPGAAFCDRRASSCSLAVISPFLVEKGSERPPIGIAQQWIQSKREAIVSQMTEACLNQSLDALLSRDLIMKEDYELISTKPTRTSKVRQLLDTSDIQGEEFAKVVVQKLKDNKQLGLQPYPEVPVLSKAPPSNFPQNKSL

BV-2 [6] = assay: Anti-neuroinflammatory activity in mouse BV-2 cells assessed as reduction in LPS-stimulated IL-6 production at 5 to 20 uM measured after 8 hrs by ELISA; format: functional, cell-based; conditions: dose 5-20 µM, DDE = dose-dependent effect
BV-2 [7] = assay: Anti-neuroinflammatory activity in mouse BV-2 cells assessed as reduction in LPS-stimulated TNF-alpha production at 5 to 20 uM measured after 4 hrs by ELISA; format: functional, cell-based; conditions: dose 5-20 µM, DDE = dose-dependent effect

T1 sequence (O43353 whole entry): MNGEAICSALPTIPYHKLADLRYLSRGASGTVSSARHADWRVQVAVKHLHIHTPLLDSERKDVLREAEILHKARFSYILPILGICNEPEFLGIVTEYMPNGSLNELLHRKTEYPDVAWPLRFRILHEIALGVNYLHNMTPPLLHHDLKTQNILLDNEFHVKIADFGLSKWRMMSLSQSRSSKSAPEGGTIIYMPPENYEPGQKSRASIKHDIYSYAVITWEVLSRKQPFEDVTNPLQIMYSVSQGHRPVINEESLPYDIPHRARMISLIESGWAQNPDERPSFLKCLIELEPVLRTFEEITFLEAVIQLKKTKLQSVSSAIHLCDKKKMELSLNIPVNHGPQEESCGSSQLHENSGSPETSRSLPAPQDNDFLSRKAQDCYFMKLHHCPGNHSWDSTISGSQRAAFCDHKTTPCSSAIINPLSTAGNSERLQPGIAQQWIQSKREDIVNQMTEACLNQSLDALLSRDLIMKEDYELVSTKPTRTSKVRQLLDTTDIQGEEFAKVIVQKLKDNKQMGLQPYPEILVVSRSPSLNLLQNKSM

In the case of `COC1=CC(=O)C(CC=C(C)C)(CC=C(C)C)C(=O)/C1=C(O)/C=C/c1ccccc1`, the Kd [1] is reported as 5.36 µM, the Kd [2] is reported as 1 µM and the Activity (BV-2 [3]) is reported as “Non-Toxic”. For the same molecule, the Activity (BV-2 [4]) was “Dde”, the Activity [5] was “Active” and the Activity (BV-2 [6]) was “Dde”. The Activity (BV-2 [7]) was “Dde”.

From ChEMBL document CHEMBL5113476, “The protective effects of natural product tunicatachalcone against neuroinflammation via targeting RIPK2 in microglia BV-2 cells stimulated by LPS” (Bioorg Med Chem, 2022)
